Results: patent US20210128520A1, “NEUROPROTECTIVE ISOFLAVONE COMPOSITIONS AND METHODS” (UNM Rainforest Innovations, priority 2017, published 2021)
“Also recorded” adds a separate entry of the source.

Tests used:
[1] = tested on: rat MCAO ischemia-reperfusion model; experiment: MCAO cerebral ischemia-reperfusion model, infarct volume (TTC) and neurology score; assay type: in vivo; details: for infarct volume in comparison with vehicle group: 20 μmol/kg i.p., single isoflavone; for infarct volume in comparison with vehicle group / infarct volume: 1.5 h MCAO + 22.5 h reperfusion; for neurological function (neurological deficit score) versus vehicle group: 60 μmol/kg i.p.; for infarct volume: 60 μmol/kg i.p. 30 min before MCAO, vehicle 27.93%±7.1%
Text: Male adult Sprague-Daweley rats (250 g to 270 g) were obtained from Laboratorial Animal Unit, the University of Hong Kong (HKU) and University of New Mexico (UNM). All animal experiments were approved and regulated by the Committee on the Use of Live Animals in Teaching and Research, HKU and the Laboratory Animal Care and Use Committee, UNM. All efforts were made to minimize animal suffering and to reduce the number of animals used.
Rats were subjected to MCAO to induce cerebral ischemia-reperfusion as previously described (Shen et al., 2006. J Neurochem 96(4):1078-1089). Briefly, rats were anaesthetized by inhalation of 5% isoflurane and maintained with 2% isoflurane in a mixture of 70% N2O and 30% 02. After vessels isolation, a 3/0 monofilament nylon suture (Johnson & Johnson Health Care Systems, Inc., Piscataway, N.J.) was inserted into the external carotid artery and advanced into the internal carotid artery and anterior cerebral artery to occlude the middle cerebral artery. After occlusion for 1.5 hours, the suture was removed to induce reperfusion and maintained for 22.5 hours. After operation, rats were transferred to intensive care incubator in which the temperature was kept at 37° C. until animals woke up completely.
Isoflavones (C, F, and D) were dissolved in dimethyl sulfoxide (DMSO) and diluted with peanut oil to the indicated working solution and intraperitoneally (i.p.) injected to rats 30 minutes before suture insertion for MCAO. The same volume of DMSO and peanut oil were used as vehicle control. In parallel experiments, for mechanistic study, ER antagonist ICI 182780 or PI3K inhibitor LY-294002 was intracerebroventricularly (i.c.v.) injected into the rat lateral ventricle 60 minutes before ischemia onset. Briefly, after anaesthetization, rat was placed on a stereotaxic apparatus and fixed well. A 22-gauge, 12 mm stainless-steel guide cannula was inserted in the left lateral ventricle of the brain. The needle was inserted 4.5 mm deep, 1.5 mm lateral to sagiture and 0.8 mm posterior to bregma to reach the lateral ventricle. Then, ICI 182780 dissolved in DMSO (1 μM) or LY-294002 (10 mM) was slowly injected into lateral ventricle and the needle was kept for at least 30 seconds before removal. The same volume of DMSO was used as a negative control.
After 24 hours of reperfusion, rat brains were isolated and sliced into coronal sections followed by staining with 2,3,5-triphenyltetrazolium chloride (TTC, Sigma-Aldrich, St. Louis, Mo.) at 37° C. for 20 minutes. The ischemic area was evaluated by calculating the hemispheric lesion area with ImageJ software (ImageJ-1.38x; Schneider et al., 2012. Nature methods 9(7):671-675), the relative infarct volume percentage (RIVP) was calculated as RIVP=IVA/TA×100%, IVA was the total infract area of five coronal sections, TA was the total area of five sections.
Neurological function was determined by 9-scale methods containing dysfunctional paw test, postural reflex test and circling test according to a previous report (Bederson et al., 1986. Stroke 17(3):472-476). Each score was summed and represented as a single overall neurological score (0 to 8).

[2] = tested on: primary cultured cortical neurons; experiment: OGD/RO-induced cell death in primary cultured cortical neurons, LDH release assay; assay type: cell-based, rat; details: 2.5 μM of each isoflavone, pre-treatment, 4 h OGD + 20 h RO
Procedure: Primary cultured cortical neurons were isolated from embryonic Sprague-Dawley rats (E17). After digested by 0.25% trypsin (Invitrogen Corp., Carlsbad, Calif.), cells were collected and suspended in Dulbecco's modified eagle medium (DMEM) containing 10% horse serum, 1% L-glutamine and antibiotic mixture. The resulting single cell suspensions were seeded on 24-well or 6-well plates pre-treated with poly-D-lysine (Sigma-Aldrich, St. Louis, Mo.). After seeded for four hours, medium was replaced with neurobasal medium containing 2% B27, 1% L-glutamine and antibiotics mixture and cell culture was maintained at 37° C. and 5% CO2.
Both oxygen-glucose deprivation plus reoxygenation (OGD/RO) and excitotoxicity experiments were conducted. In OGD/RO experiments, primary cultured neurons were exposed to neurobasal medium without glucose and incubated in a hypoxia chamber (Billups-Rothenberg, Inc., San Diego, Calif.) perfused with a mixed gas containing 95% N2 and 5% CO2 until medium oxygen concentration reached 0.1%, which was monitored with a PA-10A paramagnetic 02 analyzer (Sable Systems International, North Las Vegas, Nev.). After cells were exposed to OGD at 37° C. for four hours, the medium was replaced with normal glucose-containing medium and the plates were put into normal culture condition for 20 hours for reoxygenation. In excitotoxicity experiments, primary cultured neurons were treated with L-glutamate (8 mM, Sigma-Aldrich, St. Louis, Mo.) for six hours. […]
LDH release assay was performed for detecting cell death with Cytotoxicity Detection Kit (Invitrogen Corp., Carlsbad, Calif.). In brief, culture medium was collected and incubated with the reaction mixture for 30 minutes at room temperature (24° C.). […] The optical density of the solution was measured at 490 nm on a microplate reader (Model 3350, Bio-Rad Laboratories, Inc., Hercules, Calif.). The cell death rate was calculated by using the formula: Cell death rate (%)=(Experimental absorbance value−culture medium absorbance value)/(Triton-X 100-treated absorbance value−culture medium absorbance value)×100%.

[3] = AR extract orally administrated to rats; cited from earlier work

For `COc1ccc(-c2coc3cc(O)ccc3c2=O)cc1O` [C, calycosin], the “infarct volume in comparison with vehicle group” value (“infarct volume in comparison” below) [1] was “no statistical difference; also recorded: no significant effect”, the “neurological function (neurological deficit score) versus vehicle group” value [1] was “much improved neurological function” and the infarct volume [1] was 10.99±6.07%. For the same molecule, the “effect of ICI 182780 co-treatment on neuroprotective effect on infarct volume” value ([1]; ICI 182780 i.c.v. 1 h before ischemia, isoflavone i.p. 30 min before ischemia) was “partially blocked” and the “reduction in the rate of cell death as compared to vehicle control, OGD/RO” value (from here on “reduction in the rate of cell death”) [2] was 2%.

For `O=c1c(-c2ccc(O)cc2)coc2cc(O)ccc12` [D, daidzein], the “infarct volume in comparison” value [1] was “no statistical difference”, the “infarct volume in comparison” value ([1]; listed as daidzein) was “no significant effect” and the “neurological function (neurological deficit score) versus vehicle group” value [1] was “much improved neurological function”. For the same molecule, the infarct volume [1] was 13.84±0.95% and the “reduction in the rate of cell death” value [2] was 2%.

For `COc1ccc(-c2coc3cc(O)ccc3c2=O)cc1` [F, formononetin], the “infarct volume in comparison” value [1] was “no significant effect”, the infarct volume [1] was 10.76±4.21% and the “reduction in the rate of cell death” value [2] was 2%. For the same molecule, the “fraction metabolized into D and its conjugates” value [3] was “about 50%”.
